The results in this text go back to ChEMBL document CHEMBL3046687, “New thiazolidine-2,4-diones as antimicrobial and cytotoxic agent” (Med Chem Res, 2012).

One test has as its system Candida albicans. The experiment in a line: Antimicrobial activity against Candida albicans ATCC 2091 after 48 hr by two-fold serial dilution method. The conditions noted are these: ATCC 2091, 48 h. Format: functional.
A further test deals with Staphylococcus aureus. The experiment in a line: Antimicrobial activity against Staphylococcus aureus ATCC 25923 after 24 hr by two fold serial dilution method. The conditions noted are these: ATCC 25923, 24 h. The format is functional.
Another test relates to Enterococcus faecalis. In words: Antimicrobial activity against Enterococcus faecalis ATCC 35550 after 24 hr by two-fold serial dilution method. Format: functional. The conditions noted are these: ATCC 35550, 24 h.
In another test the test system is Pseudomonas aeruginosa. In words: Antimicrobial activity against Pseudomonas aeruginosa ATCC 25619 after 24 hr by two-fold serial dilution method. The format is functional. Particulars: ATCC 25619, 24 h.
Another test has as its system Escherichia coli. In words: Antimicrobial activity against Escherichia coli ATCC 35218 after 24 hr by two-fold serial dilution method. Format: functional. Particulars: ATCC 35218, 24 h.
In another test the test system is MCF7. In words: Cytotoxicity against Homo sapiens (human) MCF7 cells after 24 hr by MTT assay. Format: functional, cell-based. The conditions noted are these: MCF7, 24 h. In general terms: Tetrazolium dyes change colour on reduction, which living cells bring about.
A further test relates to HT-29. The experiment in a line: Cytotoxicity against Homo sapiens (human) HT-29 cells after 24 hr by MTT assay. Format: functional, cell-based. The conditions noted are these: HT-29, 24 h.
In a further test the test system is A549. In words: Cytotoxicity against Homo sapiens (human) A549 cells after 24 hr by MTT assay. The format is functional, cell-based. The conditions noted are these: A549, 24 h.
The test system of another test is Aspergillus niger. The experiment in a line: Antimicrobial activity against Aspergillus niger ATCC 6275 after 48 hr by two-foldserial dilution method. The conditions noted are these: ATCC 6275, 48 h. The format is functional.
A further test has as its system HeLa. The experiment in a line: Cytotoxicity against Homo sapiens (human) HeLa cells after 24 hr by MTT assay. The format is functional, cell-based.
A further test concerns Aspergillus flavus. In words: Antimicrobial activity against Aspergillus flavus NCIM 524 after 48 hr by two-fold serial dilution method. Format: functional. Particulars: NCIM 524, 48 h.
The subject of a further test is Cryptococcus neoformans. In words: Antimicrobial activity against Cryptococcus neoformans clinical isolate after 48 hr by two-fold serial dilution method. Format: functional.

Converted amounts (≈) assume the structure as drawn.

For `O=C(O)c1ccc(CN2C(=O)S/C(=C\c3ccccc3)C2=O)cc1`, the MIC (usually the lowest concentration that inhibits growth of the organism) in the test on Candida albicans was found to be 16 µg/mL (≈ 47.1 µM); with Staphylococcus aureus it was 128 µg/mL (≈ 377 µM); in the test with Enterococcus faecalis, 64 µg/mL (≈ 189 µM); in the test with Pseudomonas aeruginosa, 8 µg/mL (≈ 23.6 µM); with Escherichia coli, 4 µg/mL (≈ 11.8 µM); against Aspergillus niger it was 16 µg/mL (≈ 47.1 µM). Further, the results for the MIC in the test with Aspergillus flavus and in the test with Cryptococcus neoformans were 32 µg/mL (≈ 94.3 µM) and 16 µg/mL (≈ 47.1 µM), respectively. In addition, the IC50 (in general, the midpoint of a concentration-inhibition curve) was found to be 100 µM in the test on MCF7, 88 µM in the test on HT-29, 90 µM with A549 and 72 µM in the test on HeLa.

For `O=C(O)c1ccc(CN2C(=O)S/C(=C\c3ccc(Br)cc3)C2=O)cc1`, the MIC came to 16 µg/mL (≈ 38.3 µM) in the test with Candida albicans; 128 µg/mL (≈ 306 µM) with Staphylococcus aureus; 128 µg/mL (≈ 306 µM) against Enterococcus faecalis; 4 µg/mL (≈ 9.56 µM) in the test with Pseudomonas aeruginosa; 4 µg/mL (≈ 9.56 µM) in the test with Escherichia coli; 32 µg/mL (≈ 76.5 µM) in the test on Aspergillus niger. For the same compound, the MIC against Aspergillus flavus and against Cryptococcus neoformans was 16 µg/mL (≈ 38.3 µM) throughout. For the same compound, the IC50 in the test with MCF7 worked out at 48 µM; with HT-29, 30 µM; in the test with A549, 42 µM; in the test with HeLa, 38 µM.

For `O=C(O)c1ccc(CN2C(=O)S/C(=C\c3ccc(F)cc3)C2=O)cc1`, the MIC against Candida albicans was 2 µg/mL (≈ 5.6 µM); with Staphylococcus aureus it was 2 µg/mL (≈ 5.6 µM); against Enterococcus faecalis, 4 µg/mL (≈ 11.2 µM); in the test on Pseudomonas aeruginosa, 4 µg/mL (≈ 11.2 µM); against Escherichia coli, 4 µg/mL (≈ 11.2 µM); in the test on Aspergillus niger it was 4 µg/mL (≈ 11.2 µM). Further, the MIC in the test on Aspergillus flavus and against Cryptococcus neoformans was 4 µg/mL (≈ 11.2 µM) in each case. In addition, the IC50 was 38 µM in the test with MCF7, 32 µM in the test on HT-29, 36 µM in the test on A549 and 34 µM in the test with HeLa.

Turning to `Cc1ccc(/C=C2\SC(=O)N(Cc3ccc(C(=O)O)cc3)C2=O)cc1`, the MIC against Candida albicans was 64 µg/mL (≈ 181 µM); in the test on Staphylococcus aureus, 32 µg/mL (≈ 90.5 µM); against Enterococcus faecalis it was 32 µg/mL (≈ 90.5 µM); against Pseudomonas aeruginosa, 16 µg/mL (≈ 45.3 µM); with Escherichia coli it was 16 µg/mL (≈ 45.3 µM); in the test with Aspergillus niger, 64 µg/mL (≈ 181 µM). Moreover, the MIC in the test on Aspergillus flavus came out at 32 µg/mL (≈ 90.5 µM); against Cryptococcus neoformans it was 64 µg/mL (≈ 181 µM). The IC50 was determined as 100 µM in the test on MCF7, 72 µM in the test with HT-29, 78 µM in the test with A549 and 68 µM in the test with HeLa.

As for `COc1cccc(/C=C2\SC(=O)N(Cc3ccc(C(=O)O)cc3)C2=O)c1`, the MIC against Candida albicans was 32 µg/mL (≈ 86.6 µM); against Staphylococcus aureus it was 16 µg/mL (≈ 43.3 µM); in the test on Enterococcus faecalis, 16 µg/mL (≈ 43.3 µM); with Pseudomonas aeruginosa, 8 µg/mL (≈ 21.7 µM); against Escherichia coli it was 8 µg/mL (≈ 21.7 µM); in the test with Aspergillus niger, 32 µg/mL (≈ 86.6 µM). Besides, the results for the MIC with Aspergillus flavus and against Cryptococcus neoformans were 32 µg/mL (≈ 86.6 µM) and 16 µg/mL (≈ 43.3 µM), respectively. The IC50 in the test on MCF7 is 58 µM; in the test on HT-29, 48 µM; with A549 it was 55 µM; in the test on HeLa, 48 µM.

Take `COc1ccc(/C=C2\SC(=O)N(Cc3ccc(C(=O)O)cc3)C2=O)cc1`: the MIC in the test with Candida albicans stood at 16 µg/mL (≈ 43.3 µM); in the test on Staphylococcus aureus, 16 µg/mL (≈ 43.3 µM); in the test with Enterococcus faecalis, 16 µg/mL (≈ 43.3 µM); against Pseudomonas aeruginosa it was 32 µg/mL (≈ 86.6 µM); against Escherichia coli, 32 µg/mL (≈ 86.6 µM); against Aspergillus niger, 32 µg/mL (≈ 86.6 µM). For the same compound, the figures for the MIC against Aspergillus flavus and against Cryptococcus neoformans were 32 µg/mL (≈ 86.6 µM) and 16 µg/mL (≈ 43.3 µM), respectively. Besides, the IC50 in the test on MCF7 worked out at 48 µM; in the test on HT-29 it was 44 µM; in the test on A549 it was 44 µM; with HeLa it was 40 µM.

Take `COc1cc(/C=C2\SC(=O)N(Cc3ccc(C(=O)O)cc3)C2=O)cc(OC)c1OC`: the MIC amounted to 2 µg/mL (≈ 4.66 µM) against Candida albicans; 8 µg/mL (≈ 18.6 µM) against Staphylococcus aureus; 8 µg/mL (≈ 18.6 µM) against Enterococcus faecalis; 8 µg/mL (≈ 18.6 µM) in the test with Pseudomonas aeruginosa; 8 µg/mL (≈ 18.6 µM) against Escherichia coli; 4 µg/mL (≈ 9.31 µM) in the test with Aspergillus niger. Besides, the MIC against Aspergillus flavus and against Cryptococcus neoformans was 4 µg/mL (≈ 9.31 µM) throughout. Further, the IC50 with MCF7 is 30 µM; with HT-29 it was 32 µM; with A549 it was 36 µM; with HeLa, 30 µM.

For the compound `O=C(O)c1ccc(CN2C(=O)S/C(=C\c3ccccn3)C2=O)cc1`, the MIC in the test on Candida albicans turned out to be 32 µg/mL (≈ 94 µM); in the test on Staphylococcus aureus it was 64 µg/mL (≈ 188 µM); in the test on Enterococcus faecalis, 64 µg/mL (≈ 188 µM); against Pseudomonas aeruginosa it was 16 µg/mL (≈ 47 µM); in the test on Escherichia coli, 16 µg/mL (≈ 47 µM); in the test with Aspergillus niger, 32 µg/mL (≈ 94 µM). The MIC with Aspergillus flavus and in the test on Cryptococcus neoformans was 16 µg/mL (≈ 47 µM) in each case. In addition, the IC50 with MCF7 was 90 µM; in the test on HT-29, 78 µM; in the test with A549, 80 µM; in the test with HeLa it was 62 µM.

Regarding `O=C(O)c1ccc(CN2C(=O)S/C(=C\c3cccnc3)C2=O)cc1`, the MIC with Candida albicans is 32 µg/mL (≈ 94 µM); against Staphylococcus aureus it was 128 µg/mL (≈ 376 µM); against Enterococcus faecalis it was 128 µg/mL (≈ 376 µM); in the test with Pseudomonas aeruginosa, 32 µg/mL (≈ 94 µM); against Escherichia coli it was 32 µg/mL (≈ 94 µM); in the test with Aspergillus niger, 16 µg/mL (≈ 47 µM). The MIC with Aspergillus flavus amounted to 16 µg/mL (≈ 47 µM); in the test on Cryptococcus neoformans, 32 µg/mL (≈ 94 µM). For the same compound, the IC50 worked out at 100 µM in the test on MCF7, 90 µM in the test on HT-29, 75 µM in the test with A549 and 88 µM with HeLa.

For `O=C(O)c1ccc(CN2C(=O)S/C(=C\c3ccncc3)C2=O)cc1`, the MIC against Candida albicans worked out at 16 µg/mL (≈ 47 µM); in the test on Staphylococcus aureus it was 32 µg/mL (≈ 94 µM); in the test on Enterococcus faecalis, 16 µg/mL (≈ 47 µM); in the test on Pseudomonas aeruginosa it was 16 µg/mL (≈ 47 µM); against Escherichia coli, 16 µg/mL (≈ 47 µM); against Aspergillus niger it was 32 µg/mL (≈ 94 µM). The MIC against Aspergillus flavus worked out at 32 µg/mL (≈ 94 µM); against Cryptococcus neoformans, 16 µg/mL (≈ 47 µM). In addition, the IC50 turned out to be 84 µM with MCF7, 80 µM with HT-29, 72 µM in the test with A549 and 60 µM with HeLa.

With `O=C(O)c1ccc(CN2C(=O)S/C(=C\c3ccco3)C2=O)cc1`, the MIC against Candida albicans turned out to be 64 µg/mL (≈ 194 µM); in the test on Staphylococcus aureus, 32 µg/mL (≈ 97.2 µM); in the test with Enterococcus faecalis, 64 µg/mL (≈ 194 µM); in the test with Pseudomonas aeruginosa it was 16 µg/mL (≈ 48.6 µM); with Escherichia coli it was 16 µg/mL (≈ 48.6 µM); with Aspergillus niger, 32 µg/mL (≈ 97.2 µM). The results for the MIC with Aspergillus flavus and in the test on Cryptococcus neoformans were 32 µg/mL (≈ 97.2 µM) and 64 µg/mL (≈ 194 µM), respectively. The IC50 came out at 90 µM in the test on MCF7, 94 µM with HT-29, 76 µM in the test on A549 and 80 µM with HeLa.

`O=C(O)c1ccc(CN2C(=O)S/C(=C\c3cccs3)C2=O)cc1`: the MIC worked out at 32 µg/mL (≈ 92.6 µM) against Candida albicans; 16 µg/mL (≈ 46.3 µM) in the test with Staphylococcus aureus; 32 µg/mL (≈ 92.6 µM) in the test on Enterococcus faecalis; 16 µg/mL (≈ 46.3 µM) against Pseudomonas aeruginosa; 8 µg/mL (≈ 23.2 µM) in the test on Escherichia coli; 8 µg/mL (≈ 23.2 µM) with Aspergillus niger. The MIC against Aspergillus flavus was 8 µg/mL (≈ 23.2 µM); against Cryptococcus neoformans it was 32 µg/mL (≈ 92.6 µM). Further, the IC50 with MCF7 is 76 µM; in the test on HT-29, 88 µM; with A549 it was 80 µM; in the test on HeLa it was 76 µM.

Consider `Cn1cccc1/C=C1\SC(=O)N(Cc2ccc(C(=O)O)cc2)C1=O`, for which the MIC came to 32 µg/mL (≈ 93.5 µM) against Candida albicans; 64 µg/mL (≈ 187 µM) against Staphylococcus aureus; 64 µg/mL (≈ 187 µM) with Enterococcus faecalis; 16 µg/mL (≈ 46.7 µM) with Pseudomonas aeruginosa; 16 µg/mL (≈ 46.7 µM) against Escherichia coli; 16 µg/mL (≈ 46.7 µM) with Aspergillus niger. Besides, the figures for the MIC with Aspergillus flavus and in the test on Cryptococcus neoformans were 16 µg/mL (≈ 46.7 µM) and 32 µg/mL (≈ 93.5 µM), respectively. Besides, the IC50 in the test on MCF7 came out at 70 µM; in the test with HT-29, 88 µM; in the test on A549, 80 µM; with HeLa, 90 µM.

For `CC1(C)S[C@@H]2[C@H](NC(=O)[C@H](N)c3ccccc3)C(=O)N2[C@H]1C(=O)O` [AMPICILLIN], the minimum inhibitory concentration (MIC) with Staphylococcus aureus and in the test with Enterococcus faecalis was 2 µg/mL (≈ 5.72 µM) each time.

In the case of `CC(=O)N1CCN(c2ccc(OCC3COC(Cn4ccnc4)(c4ccc(Cl)cc4Cl)O3)cc2)CC1` (configuration not stated) [KETOCONAZOLE], the MIC was 2 µg/mL (≈ 3.76 µM) against Candida albicans, 2 µg/mL (≈ 3.76 µM) against Aspergillus niger, 1 µg/mL (≈ 1.88 µM) against Aspergillus flavus and 2 µg/mL (≈ 3.76 µM) in the test with Cryptococcus neoformans.
